In patent US20040142952A1, “Triazoloquinazoline and pyrazolotriazolopyrimidine derivatives, medicinal compositions, adenosine a3 receptor affinity agents, ocular tension lowering agents, preparations for preventing and treating glaucoma and method of lowering ocular tension” (priority 2001, published 2004):

Structure (SMILES) | melting point
CCCCc1nc2nn(CCC)cc2c2nc(-c3ccc(OC)cc3)nn12 [Example 146, 5-n-butyl-2-(4-methoxyphenyl)-8-n-propylpyrazolo[4,3-e]-1,2,4-triazolo[1,5-c]pyrimidine] | 112 to 112.5 °C
O=C(O)CCCc1nc2ccccc2c2nc(-c3ccc(F)cc3)nn12 [Example 155, 4-[2-(4-fluorophenyl)-1,2,4-triazolo[1,5-c]quinazolin-5-yl]butyric acid] | 225 to 226 °C
CCCCc1nc2nn(CCO)cc2c2nc(-c3ccc(C)cc3)nn12 [Example 137, 5-n-butyl-8-(2-hydroxyethyl)-2-(4-methylphenyl)pyrazolo[4,3-e]-1,2,4-triazolo[1,5-c]pyrimidine] | 171 to 173 °C
CCCCCCc1nc2ccccc2c2nc(-c3ccccc3)nn12 [Example 94, 5-n-hexyl-2-phenyl-1,2,4-triazolo[1,5-c]quinazoline] | 92 to 93 °C
COC(=O)CCCc1nc2nncc-2c2nc(-c3ccc(OC)cc3)[nH]n12 [Example 90, methyl 4-[2-(4-methoxyphenyl)pyrazolo[4,3-e]-1,2,4-triazolo[1,5-c]pyrimidin-5-yl]butyrate] | 187.5 to 188.5 °C
CCCCc1nc2ccccc2c2nc(-c3ccccc3Cl)nn12 [Example 24, 5-n-butyl-2-(2-chlorophenyl)-1,2,4-triazolo[1,5-c]quinazoline] | 104.5 to 105.55 °C
CCc1nc2ccccc2c2nc(-c3ccc(C)cc3)nn12 [Example 69, 5-ethyl-2-(4-methylphenyl)-1,2,4-triazolo[1,5-c]quinazoline] | 147 to 148 °C
CCCCc1nc2nn(CCO)cc2c2nc(-c3ccccc3)nn12 [Example 133, 5-n-butyl-8-(2-hydroxyethyl)-2-phenylpyrazolo[4,3-e]-1,2,4-triazolo[1,5-c]pyrimidine] | 160.5 to 162 °C
CCCCc1nc2ccc(Cl)cc2c2nc(-c3ccc(C)cc3)nn12 [Example 77, 5-n-butyl-9-chloro-2-(4-methylphenyl)-1,2,4-triazolo[1,5-c]quinazoline] | 141 to 143 °C
CCCCc1nc2c(cnn2CC(=O)OCC)c2nc(-c3ccc(F)cc3)nn12 [Example 130, ethyl 2-[5-n-butyl-2-(4-fluorophenyl)pyrazolo[4,3-e]-1,2,4-triazolo[1,5-c]pyrimidin-7-yl]acetate] | 139.5 to 140.5 °C
CCCCc1nc2nn(CC(=O)O)cc2c2nc(-c3ccccc3)nn12 [Example 152, 2-(5-n-butyl-2-phenylpyrazolo[4,3-e]-1,2,4-triazolo[1,5-c]pyrimidin-8-yl)acetic acid] | > 281 °C (dec.)
CCc1nc2nncc-2c2nc(-c3ccc(OC)cc3)[nH]n12 [Example 63, 5-ethyl-2-(4-methoxyphenyl)pyrazolo[4,3-e]-1,2,4-triazolo[1,5-c]pyrimidine] | 274 to 277 °C
CCCCCc1nc2ccccc2c2nc(-c3ccc(C)cc3)nn12 [Example 101, 2-(4-methylphenyl)-5-n-pentyl-1,2,4-triazolo[1,5-c]quinazoline] | 129.5 to 131 °C
COC(=O)CCCc1nc2ccccc2c2nc(-c3ccccc3)nn12 [Example 96, methyl 4-(2-phenyl-1,2,4-triazolo[1,5-c]quinazolin-5-yl)butyrate] | 118.5 to 119.5 °C
CCCCc1nc2ccccc2c2nc(-c3cc(OC)c(OC)c(OC)c3)nn12 [Example 37, 5-n-butyl-2-(3,4,5-trimethoxyphenyl)-1,2,4-triazolo[1,5-c]quinazoline] | 130 to 133 °C
CCCCc1nc2c(cnn2CCC)c2nc(-c3ccc(F)cc3)nn12 [Example 124, 5-n-butyl-2-(4-fluorophenyl)-7-n-propylpyrazolo[4,3-e]-1,2,4-triazolo[1,5-c]pyrimidine] | 105.5 to 106 °C
CCc1nc2ccccc2c2nc(-c3ccc(F)cc3)nn12 [Example 67, 5-ethyl-2-(4-fluorophenyl)-1,2,4-triazolo[1,5-c]quinazoline] | 195 to 196 °C
CCOc1ccc(-c2nc3c4ccccc4nc(CC)n3n2)cc1 [Example 72, 2-(4-ethoxyphenyl)-5-ethyl-1,2,4-triazolo[1,5-c]quinazoline] | 153 to 154 °C
